What was measured:
[1] = target: T1, human recombinant GST cleaved CSNK1D (Homo sapiens, UniProt P48730); test: Purified Enzyme Assay (ADP-Glo CSNK1D Kinase Assay); format: biochemical; details: 2 nM CSNK1D; peptide substrate 150 μM; ATP 20 μM; 45 minutes at room temperature
T1 construct: GST (cleaved yes); purchased University of Dundee clone DU 19064
In short: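 GST-cleaved human recombinant CSNK1D phosphorylates peptide PLSRTL-pS-VASLPGL with ATP; compounds added in dose-response, 45 min at room temperature. ADP formed measured by ADP-Glo luminescence and converted to percent activity.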

human CSNK1D = target: T2, human CSNK1D (Homo sapiens, UniProt P48730); test: Whole Cell nBRET CSNK1D Binding Assay; details: living CHO cells stably expressing human CSNK1D tagged with nanoluciferase; NanoBret tracer 130 nM; 2 hours at 37 C
T2 construct: expressed in transfected cells
T2 sequence (P48730 whole entry): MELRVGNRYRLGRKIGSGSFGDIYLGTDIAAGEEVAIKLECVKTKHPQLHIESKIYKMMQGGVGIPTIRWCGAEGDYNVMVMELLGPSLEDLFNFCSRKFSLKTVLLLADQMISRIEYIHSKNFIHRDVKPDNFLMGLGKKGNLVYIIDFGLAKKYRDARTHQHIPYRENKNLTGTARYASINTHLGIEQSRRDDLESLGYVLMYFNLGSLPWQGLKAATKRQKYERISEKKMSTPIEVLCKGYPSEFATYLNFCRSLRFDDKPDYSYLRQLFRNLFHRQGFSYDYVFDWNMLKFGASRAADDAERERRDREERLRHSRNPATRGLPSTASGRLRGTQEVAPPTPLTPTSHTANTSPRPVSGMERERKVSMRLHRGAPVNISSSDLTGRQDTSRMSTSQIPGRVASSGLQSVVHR

T1 sequence (P48730 whole entry): as above

`CCC(=O)Nc1cc(-c2c(-c3ccc(F)cn3)nn3c2OCCC3C)ccn1` (stereo not drawn) [Example 445, N-(4-(2-(5-Fluoropyridin-2-yl)-7-methyl-6,7-dihydro-5H-pyrazolo[5,1-b][1,3]oxazin-3-yl)pyridin-2-yl)propionamide] showed an IC50 [1] of 10 nM and an IC50 (human CSNK1D) of 210 nM.

Compound `Fc1ccc(-c2nn3c(c2-c2c(F)cnc4[nH]ncc24)CC[C@@H]2C[C@@H]23)nc1` (single isomer, unassigned) [Example 343, (5a*R,6a*S)-3-(5-Fluoro-1H-pyrazolo[3,4-b]pyridin-4-yl)-2-(5-fluoropyridin-2-yl)-5,5a,6,6a-tetrahydro-4H-cyclopropa[e]pyrazolo[1,5-a]pyridine] has an IC50 [1] of 5 nM and an IC50 (human CSNK1D) of 96 nM.

With `Cc1nc(-c2c(-c3ccc(F)cc3)nn3c2COC(C)(C)C3)c2cn[nH]c2n1` [Example 394, 2-(4-Fluorophenyl)-6,6-dimethyl-3-(6-methyl-1H-pyrazolo[3,4-d]pyrimidin-4-yl)-4,7-dihydropyrazolo[5,1-c][1,4]oxazine] the IC50 [1] was 2 nM and the IC50 (human CSNK1D) was 18 nM.

`Fc1ccc(-c2nn3c(c2-c2ccnc4[nH]ncc24)C[C@H]2C[C@H]23)nc1` [Example 25, (4aR,5aR)-2-(5-Fluoropyridin-2-yl)-3-(1H-pyrazolo[3,4-b]pyridin-4-yl)-4,4a,5,5a-tetrahydrocyclopropa[4,5]pyrrolo[1,2-b]pyrazole] gave an IC50 [1] of 49 nM and an IC50 (human CSNK1D) of 672 nM.

Work on `Fc1ccc(-c2nn3c(c2-c2ccnc4[nH]ncc24)C2CC2C3)nc1` (racemic) [Example 23, 2-(5-Fluoropyridin-2-yl)-3-(1H-pyrazolo[3,4-b]pyridin-4-yl)-3b,4,4a,5-tetrahydrocyclopropa[3,4]pyrrolo[1,2-b]pyrazole] yielded an IC50 [1] of 3 nM and an IC50 (human CSNK1D) of 48 nM.

For `[2H]C([2H])([2H])C1(C([2H])([2H])[2H])Cn2nc(-c3ccc(F)cn3)c(-c3c(F)c(C)nc4[nH]ncc34)c2CO1` [Example 406, 3-(5-Fluoro-6-methyl-1H-pyrazolo[3,4-b]pyridin-4-yl)-2-(5-fluoropyridin-2-yl)-6,6-bis(methyl-d3)-6,7-dihydro-4H-pyrazolo[5,1-c][1,4]oxazine], the IC50 [1] was 3 nM and the IC50 (human CSNK1D) was 23 nM.

For `CCn1ncc2cc(-c3c(-c4ccc(F)cn4)nn4c3CO[C@@H](C)C4)cnc21` [Example 371, (S)-3-(1-Ethyl-1H-pyrazolo[3,4-b]pyridin-5-yl)-2-(5-fluoropyridin-2-yl)-6-methyl-6,7-dihydro-4H-pyrazolo[5,1-c][1,4]oxazine], the IC50 [1] was 404 nM and the IC50 (human CSNK1D) was 7800 nM.

Work on `Fc1ccc(-c2nn3c(c2-c2cc(C(F)F)nc4[nH]ncc24)CCC3)nc1` [Example 222, 6-(Difluoromethyl)-4-[2-(5-fluoro-2-pyridyl)-5,6-dihydro-4H-pyrrolo[1,2-b]pyrazol-3-yl]-1H-pyrazolo[3,4-b]pyridine] yielded an IC50 [1] of 11 nM and an IC50 (human CSNK1D) of 181 nM.

In the case of `Cc1n[nH]c2ncc(F)c(-c3c(-c4ccc(F)cn4)nn4c3CC[C@@H]3C[C@@H]34)c12` (single isomer, unassigned) [Example 345, (5a*R,6a*S)-3-(5-Fluoro-3-methyl-1H-pyrazolo[3,4-b]pyridin-4-yl)-2-(5-fluoropyridin-2-yl)-5,5a,6,6a-tetrahydro-4H-cyclopropa[e]pyrazolo[1,5-a]pyridine], the IC50 [1] is reported as 34 nM and the IC50 (human CSNK1D) is reported as 368 nM.

For `[2H]C([2H])([2H])[C@]1(C#N)CCc2c(-c3ccnc4[nH]ncc34)c(-c3ccc(F)cn3)nn2C1` (single isomer, unassigned) [Example 323, *S-2-(5-Fluoropyridin-2-yl)-6-(methyl-d3)-3-(1H-pyrazolo[3,4-b]pyridin-4-yl)-4,5,6,7-tetrahydropyrazolo[1,5-a]pyridine-6-carbonitrile], the IC50 [1] was 1 nM and the IC50 (human CSNK1D) was 15 nM.

Work on `COCC1(F)CCc2c(-c3cc(C)nc4[nH]ccc34)c(-c3ccc(F)cn3)nn2C1` (single isomer, unassigned) [Example 299, (*R)-4-[6-Fluoro-2-(5-fluoro-2-pyridyl)-6-(methoxymethyl)-5,7-dihydro-4H-pyrazolo[1,5-a]pyridin-3-yl]-6-methyl-1H-pyrrolo[2,3-b]pyridine] yielded an IC50 [1] of 20 nM and an IC50 (human CSNK1D) of 303 nM.

`CC1(C)COc2c(-c3ccnc4cn[nH]c34)c(-c3ccc(F)cc3)nn2C1` [Example 453, 2-(4-Fluorophenyl)-6,6-dimethyl-3-(1H-pyrazolo[4,3-b]pyridin-7-yl)-5,7-dihydropyrazolo[5,1-b][1,3]oxazine] was tested, and the IC50 [1] was 2 nM and the IC50 (human CSNK1D) was 11 nM.

Compound `Cc1cc(-c2c(-c3ccc(F)cc3)nn3c2COC[C@@H]3C)c2cn[nH]c2n1` (single isomer, unassigned) [Example 93, (*S)-2-(4-Fluorophenyl)-7-methyl-3-(6-methyl-1H-pyrazolo[3,4-b]pyridin-4-yl)-6,7-dihydro-4H-pyrazolo[5,1-c][1,4]oxazine] has an IC50 [1] of 10 nM and an IC50 (human CSNK1D) of 297 nM.

Compound `Cc1cc(-c2c(-c3ccc(F)cn3)nn3c2O[C@H](C)CC3)c2cn[nH]c2n1` (single isomer, unassigned) [Example 201, (*R)-2-(5-Fluoro-2-pyridyl)-5-methyl-3-(6-methyl-1H-pyrazolo[3,4-b]pyridin-4-yl)-6,7-dihydro-5H-pyrazolo[5,1-b][1,3]oxazine] has an IC50 [1] of 17 nM and an IC50 (human CSNK1D) of 246 nM.

In the case of `CC1(C)Cn2nc(-c3ccc(F)cn3)c(-c3ccnc4[nH]ccc34)c2CO1` [Example 147, 2-(5-Fluoropyridin-2-yl)-6,6-dimethyl-3-(1H-pyrrolo[2,3-b]pyridin-4-yl)-6,7-dihydro-4H-pyrazolo[5,1-c][1,4]oxazine], the IC50 [1] is reported as 1 nM and the IC50 (human CSNK1D) is reported as 11 nM.

In the case of `Cc1cc(-c2c(-c3ccc(F)cn3)nn3c2CO[C@@H](C)C3)c2cn[nH]c2n1` (single isomer, unassigned) [Example 89], the IC50 [1] is reported as 9 nM and the IC50 (human CSNK1D) is reported as 275 nM.

For `Fc1ccc(-c2nn3c(c2-c2ccnc4[nH]ncc24)CCC(F)(F)C3)nc1` [Example 44, 4-(6,6-Difluoro-2-(5-fluoropyridin-2-yl)-4,5,6,7-tetrahydropyrazolo[1,5-a]pyridin-3-yl)-1H-pyrazolo[3,4-b]pyridine], the IC50 [1] was 16 nM and the IC50 (human CSNK1D) was 296 nM.

`CCC(=O)Nc1cc(-c2c(-c3ccc(F)cn3)nn3c2COC(C)(C)C3)ccn1` [Example 131, N-(4-(2-(5-Fluoropyridin-2-yl)-6,6-dimethyl-6,7-dihydro-4H-pyrazolo[5,1-c][1,4]oxazin-3-yl)pyridin-2-yl)propionamide] showed an IC50 [1] of 3 nM and an IC50 (human CSNK1D) of 16 nM.

`Cc1nc2[nH]ncc2c(-c2c(-c3ccc(F)cn3)nn3c2CC2(C3)CC2(F)F)c1F` (single isomer, unassigned) [Example 264, (*S)-1′.1′-Difluoro-3-(5-fluoro-6-methyl-1H-pyrazolo[3,4-b]pyridin-4-yl)-2-(5-fluoro-2-pyridyl)spiro[4,6-dihydropyrrolo[1,2-b]pyrazole-5,2′-cyclopropane]] gave an IC50 [1] of 4 nM and an IC50 (human CSNK1D) of 20 nM.

In the case of `CC(=O)Nc1cc(-c2c(-c3ccc(F)cc3)nn3c2CC[C@@H]2[C@H]3C2(F)F)ccn1` (stereo in doubt) [Example 349, N-(4-((5a*R,6a*S-6,6-Difluoro-2-(4-fluorophenyl)-5,5a,6,6a-tetrahydro-4H-cyclopropa[e]pyrazolo[1,5-a]pyridin-3-yl)pyridin-2-yl)acetamide], the IC50 [1] is reported as 8 nM and the IC50 (human CSNK1D) is reported as 74 nM.

For `Cc1cc(-c2c(-c3ccc(F)cn3)nn3c2CCC2CC23)c2cn[nH]c2n1` (racemic) [Example 57, (Racemic) 2-(5-Fluoropyridin-2-yl)-3-(6-methyl-1H-pyrazolo[3,4-b]pyridin-4-yl)-5,5a,6,6a-tetrahydro-4H-cyclopropa[e]pyrazolo[1,5-a]pyridine], the IC50 [1] was 6 nM and the IC50 (human CSNK1D) was 57 nM.

For `Cc1cc(-c2c(-c3ccc(F)cc3)nn3c2CC(C)(C)C3)c2cn[nH]c2n1` [Example 232, 4-[2-(4-Fluorophenyl)-5,5-dimethyl-4,6-dihydropyrrolo[1,2-b]pyrazol-3-yl]-6-methyl-1H-pyrazolo[3,4-b]pyridine], the IC50 [1] was 1 nM and the IC50 (human CSNK1D) was 3 nM.

`O=C1OCCn2nc(-c3ccc(F)cc3)c(-c3ccnc4[nH]ncc34)c21` [Example 181, 2-(4-Fluorophenyl)-3-(1H-pyrazolo[3,4-b]pyridin-4-yl)-6,7-dihydropyrazolo[5,1-c][1,4]oxazin-4-one] was tested, and the IC50 [1] was 32 nM and the IC50 (human CSNK1D) was 3240 nM.

For `C[C@@]1(CF)CCc2c(-c3c(F)cnc4[nH]ncc34)c(-c3ccc(F)cn3)nn2C1` (single isomer, unassigned) [Example 292, (*R)-5-Fluoro-4-[6-(fluoromethyl)-2-(5-fluoro-2-pyridyl)-6-methyl-5,7-dihydro-4H-pyrazolo[1,5-a]pyridin-3-yl]-1H-pyrazolo[3,4-b]pyridine], the IC50 [1] was 3 nM and the IC50 (human CSNK1D) was 21 nM.

Compound `Cc1cc(-c2c(-c3ccc(F)cc3)nn3c2CCC(F)(F)C3)c2cn[nH]c2n1` [Example 43, 4-[6,6-Difluoro-2-(4-fluorophenyl)-5,7-dihydro-4H-pyrazolo[1,5-a]pyridin-3-yl]-6-methyl-1H-pyrazolo[3,4-b]pyridine] has an IC50 [1] of 2 nM and an IC50 (human CSNK1D) of 12 nM.

`Fc1ccc(-c2nn3c(c2-c2ccnc4[nH]ncc24)CCC32CC2)nc1` [Example 249, 2-(5-Fluoro-2-pyridyl)-3-(1H-pyrazolo[3,4-b]pyridin-4-yl)spiro[4,5-dihydropyrrolo[1,2-b]pyrazole-6,1′-cyclopropane]] showed an IC50 [1] of 17 nM and an IC50 (human CSNK1D) of 197 nM.

`[2H]C([2H])([2H])C1(C([2H])([2H])[2H])Cn2nc(-c3ccc(F)cn3)c(-c3cc(C)nc4[nH]nc(Cl)c34)c2CO1` [Example 405, 3-(3-Chloro-6-methyl-1H-pyrazolo[3,4-b]pyridin-4-yl)-2-(5-fluoropyridin-2-yl)-6,6-bis(methyl-d3)-6,7-dihydro-4H-pyrazolo[5,1-c][1,4]oxazine] gave an IC50 [1] of 5 nM and an IC50 (human CSNK1D) of 14 nM.

— patent publication US20230339970A1, “CASEIN KINASE 1 DELTA MODULATORS” (priority 2020, published 2023)
